Laboratory results as given in EP1693059A1, “Use of rocaglamide derivatives as NF-AT-specific inhibitors for the treatment of certain inflammatory diseases” (Deutsches Krebsforschungszentrum, priority 2005, dated 2006).

Assays:
NF-kappa B [1] = assay: NF-kappa B consensus luciferase reporter in Jurkat T cells; assay type: cell-based, human; settings: for inhibition of NF-kappa B-dependent transcription: doses higher than 150 nM, 480 min
Excerpt: Luciferase reporter construct containing the human IL-2 (-300/+47), the human IL-4 (-269/+11) promoter and the multiple IL-4 NF-AT (P1) luciferase constructs were generated previously (Ehret et al., 2001; Li-Weber et al., 1998). The multiple copies of the AP-1 binding site from SV40 enhancer ([…]), the NF-kappa B consensus sequence ([…]) and the human IL-2 NF-AT (-282/-250) element ([…]) were constructed by ligation of the DNA sequence into the multiple-cloning site of pTATA-Luc vector. The luciferase reporter construct containing the human IFN-γ (-854/+7) promoter was construct by ligation of the IFN-γ promoter sequence generated by PCR into the luciferase reporter vector. All constructs were confirmed by sequencing analysis. The pLuc-Bax promoter reporter plasmid was kindly provided by M. L. Schmitz (Department for Chemistry and Biochemistry, University of Bern, Switzerland).
Jurkat T cells were transfected by eleclroporation as previously described (Li-Weber et al., 1998). After overnight recovering, the cells were divided and treated with different doses of rocaglamides and than further cultured in the absence or presence of PMA (10 ng/ml) and ionomycin (0.5 µM) for 8 h. Luciferase activity was determined in 10 µl of cell extract using the luciferase assay substrate (Promega Corp., Heidelberg, Germany) with a Duolumat LB9507 luminometer (Berthold, Bad Wildbad, Germany).
Characteristically, NF-AT family proteins act synergistically with AP-1 (Fos/Jun) proteins to activate genes containing composite NF-AT and AP-1 binding sites (Macian et al., 2001). Many cytokine genes, including IL-2, IL-4, and IFN-γ contain NF-AT/AP-1 composite sites in their promoter/enhancer region (Rao et al., 1997). To investigate whether inhibition of NF-AT and c-Jun expression by rocaglamides would lead to suppression of their transcriptional activities, we performed transfection studies with luciferase reporter constructs containing multiple copies of the NF-AT-binding elements derived from the IL-4 and IL-2 promoter and the consensus binding sequences for AP-1 and NF-kappa B, respectively. […]

NF-kappa B subunit p65 = assay: Immunoblot of nuclear NF-kappa B subunit p65 in activated Jurkat T cells; assay type: cell-based, human; settings: PMA/ionomycin 2 h
Procedure: Many inflammatory cytokine genes are transcriptionally activated by the inducible, ubiquitous transcription factors NF-AT, AP-1 and NF-kappa B (Tsai et al., 1996; Sica et al., 1997; Falvo et al., 2000; Macian et aL, 2001; Kaminuma et al., 2002; Li-Weber & Krammer, 2003). Therefore, we first examined the effect of the rocagtamide derivatives on nuclear expression levels of NF-AT, the AP-1 subunit c-Jun, and the NF-kappa B subunit p65 in activated T cells. Nuclear proteins were prepared from Jurkat T cells, stimulated by PMA/iouomycin for 2 h in the presence or absence of different doses of rocaglamides. […] CsA is a well known immunosuppressive reagent that targets NF-AT activity.

NF-kappa B [2] = settings: Baumann et al., 2002; cited from earlier work
JNK = assay: Immunoblot of phosphorylated JNK in Jurkat T cells; assay type: cell-based, human; settings: with PMA/ionomycin
Procedure: T cells were lysed in ice-cold RIPA buffer (50 mM Tris-HCl, pH 8.0, 120 mM NaCI, 1% NP-40, 0.5% Desoxycholate, 1 mM PMSF, 25 mM NaF, 1% SDS, 1 mM DTT, 0.2 mM Na3V04 and 20 µl/ml protease inhibitors) for 30 min. […] Equal amounts of proteins were separated on 10% SDS-PAGE gels, transferred onto Hybond-ECL nitrocellulose membrane (Amersham Biosciences, Little Chalfon, UK). The membrane was blocked with 5% milk powder in PBS/0.1% Tween 20 for 1 h, washed with the same solution and incubated with antibodies at 37°C for 1 h or overnight at 4 °C. The blots were washed with PBS/Tween and developed with HRP-coupled antibodies followed by enhanced Chemiluminescence Reagent Plus (PerkinElmer Life Sciences, Boston, MA). […] For stripping, membranes were incubated for 30 min at 56 °C in a buffer containing 62.5 mM Tris-HCl, pH 6.7, 2% SDS and 100 mM β-mercaptoethanol.
To investigate the molecular mechanisms of rocaglamides-mediated suppression of NF-AT activity, we examined the effect of rocaglamides on activities of MAP kinases.

Row | Structure (SMILES) | NF-kappa B activity (NF-kappa B [1]; concentrations up to 100 nM) | nuclear levels of p65 (NF-kappa B subunit p65) | NF-kappa B activity induced by TNF-α or PMA (NF-kappa B [2]) | expression of phosphor-JNK (p-JNK) (JNK) | inhibition of NF-kappa B-dependent transcription (NF-kappa B [1])
1 | COc1ccc([C@@]23Oc4cc(OC)cc(OC)c4[C@]2(O)[C@H](O)[C@H](C(=O)N(C)C)[C@H]3c2ccccc2)cc1 [Roc-1] | subtle increase | slightly elevated | inhibit NF-kappa B activity | stronger inducers of p-JNK than Roc-2 | 
2 | COc1ccc([C@@]23Oc4cc(OC)cc(OC)c4[C@]2(O)[C@H](OC(C)=O)[C@H](C(=O)N(C)C)[C@H]3c2ccccc2)cc1 [Roc-2] |  |  |  | Roc-1 and 3 are stronger inducers of p-JNK than Roc-2 | about 20%
3 | COC(=O)[C@H]1[C@@H](OC=O)[C@@]2(O)c3c(OC)cc(OC)cc3O[C@@]2(c2ccc3c(c2)OCO3)[C@@H]1c1ccccc1 [Roc-3] |  |  |  | stronger inducers of p-JNK than Roc-2 | about 20%
